Data taken from PubChem BioAssay AID1845204 (Molecular Pharmacology Branch, DTP, NCI, 2023).

System: HSSY-II tumor spheroid viability
Assay: Anticancer human tumor HSSY-II cell line growth inhibition;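 further: spheroids exposed to compounds for seven days before reading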;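 on viability, T/C: percent of DMSO vehicle control viability so 100% = untreated level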
Settings: spheroids with HUVEC and MSC; for IC50: curve of first compound; for viability, T/C: stronger effect = lower value
Summary of the method: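 Complex spheroids of malignant cells with endothelial cells and mesenchymal stem cells; agents alone or combined, from near clinical Cmax (or 10 microM if unknown) down in half-log steps, 0.25% DMSO final.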

[1] = second compound 0.003 µM, first compound 0.0316 µM
[2] = second compound 0.003 µM, first compound 0.1 µM
[3] = second compound 0.003 µM, first compound 0.316 µM
[4] = second compound 0.003 µM, first compound 1 µM
[5] = second compound 0.003 µM, first compound 3.16 µM
[6] = second compound 0.003 µM, first compound 10 µM
[7] = second compound 0.00949 µM, first compound 0.0316 µM
[8] = second compound 0.00949 µM, first compound 0.1 µM
[9] = second compound 0.00949 µM, first compound 0.316 µM
[10] = second compound 0.00949 µM, first compound 1 µM
[11] = second compound 0.00949 µM, first compound 3.16 µM
[12] = second compound 0.00949 µM, first compound 10 µM
[13] = second compound 0.03 µM, first compound 0.0316 µM
[14] = second compound 0.03 µM, first compound 0.1 µM
[15] = second compound 0.03 µM, first compound 0.316 µM
[16] = second compound 0.03 µM, first compound 1 µM
[17] = second compound 0.03 µM, first compound 3.16 µM
[18] = second compound 0.03 µM, first compound 10 µM
[19] = second compound 0.0949 µM, first compound 0.0316 µM
[20] = second compound 0.0949 µM, first compound 0.1 µM
[21] = second compound 0.0949 µM, first compound 0.316 µM
[22] = second compound 0.0949 µM, first compound 1 µM
[23] = second compound 0.0949 µM, first compound 3.16 µM
[24] = second compound 0.0949 µM, first compound 10 µM
[25] = second compound 0.3 µM, first compound 0.0316 µM
[26] = second compound 0.3 µM, first compound 0.1 µM
[27] = second compound 0.3 µM, first compound 0.316 µM
[28] = second compound 0.3 µM, first compound 1 µM
[29] = second compound 0.3 µM, first compound 3.16 µM
[30] = second compound 0.3 µM, first compound 10 µM

CC(C)n1c(=O)n(C)c2cnc3cc(F)c(-c4ccc(OCCCN5CCCCC5)nc4)cc3c21 + CC[C@@]1(O)C(=O)OCc2c1cc1n(c2=O)Cc2cc3c(CN(C)C)c(O)ccc3nc2-1
IC50 (second compound 0.003 µM): < 31.6 nM
IC50 (second compound 0.00949 µM): < 31.6 nM
IC50 (second compound 0.03 µM): < 31.6 nM
IC50 (second compound 0.0949 µM): < 31.6 nM
IC50 (second compound 0.3 µM): < 31.6 nM
viability, T/C [1]: 48%
viability, T/C [2]: 45.2%
viability, T/C [3]: 51.9%
viability, T/C [4]: 40.6%
viability, T/C [5]: 14%
viability, T/C [6]: 10.2%
viability, T/C [7]: 15%
viability, T/C [8]: 14.7%
viability, T/C [9]: 14.3%
viability, T/C [10]: 13%
viability, T/C [11]: 9.79%
viability, T/C [12]: 7.58%
viability, T/C [13]: 10.1%
viability, T/C [14]: 9.85%
viability, T/C [15]: 9.61%
viability, T/C [16]: 7.8%
viability, T/C [17]: 4.59%
viability, T/C [18]: 2.72%
viability, T/C [19]: 9.24%
viability, T/C [20]: 8.61%
viability, T/C [21]: 8.35%
viability, T/C [22]: 6.09%
viability, T/C [23]: 4.16%
viability, T/C [24]: 2.59%
viability, T/C [25]: 6.62%
viability, T/C [26]: 6.23%
viability, T/C [27]: 5.88%
viability, T/C [28]: 5.84%
viability, T/C [29]: 4.56%
viability, T/C [30]: 3.48%

COc1ccc([C@@H](O)c2cc(-c3ncnc4cc(N5CCOCC5)ccc34)c(F)cc2Cl)nn1 + CC[C@@]1(O)C(=O)OCc2c1cc1n(c2=O)Cc2cc3c(CN(C)C)c(O)ccc3nc2-1
IC50 (second compound 0.003 µM): 1380 nM
IC50 (second compound 0.00949 µM): 902 nM
IC50 (second compound 0.03 µM): < 31.6 nM
IC50 (second compound 0.0949 µM): < 31.6 nM
IC50 (second compound 0.3 µM): < 31.6 nM
viability, T/C [1]: 88.8%
viability, T/C [2]: 89.5%
viability, T/C [3]: 74.8%
viability, T/C [4]: 61.5%
viability, T/C [5]: 26.5%
viability, T/C [6]: 8.32%
viability, T/C [7]: 62.6%
viability, T/C [8]: 65.5%
viability, T/C [9]: 63.8%
viability, T/C [10]: 48.6%
viability, T/C [11]: 11.7%
viability, T/C [12]: 3.18%
viability, T/C [13]: 10.3%
viability, T/C [14]: 12.2%
viability, T/C [15]: 10.3%
viability, T/C [16]: 6.74%
viability, T/C [17]: 2.41%
viability, T/C [18]: 1.53%
viability, T/C [19]: 9.13%
viability, T/C [20]: 8.32%
viability, T/C [21]: 7.14%
viability, T/C [22]: 2.81%
viability, T/C [23]: 1.55%
viability, T/C [24]: 1.22%
viability, T/C [25]: 6.23%
viability, T/C [26]: 5.53%
viability, T/C [27]: 4.4%
viability, T/C [28]: 2.36%
viability, T/C [29]: 1.09%
viability, T/C [30]: 0.71%

O=C(c1cc(Cc2n[nH]c(=O)c3ccccc23)ccc1F)N1CCN(C(=O)C2CC2)CC1 + COc1cc2c(cc1O)CCNC21CSC2c3c(OC(C)=O)c(C)c4c(c3C(COC1=O)N1C(O)C3Cc5cc(C)c(OC)c(O)c5C(C21)N3C)OCO4
IC50 (second compound 30 pM): 3000 nM
IC50 (second compound 94.9 pM): 875 nM
IC50 (second compound 0.0003 µM): < 94.9 nM
IC50 (second compound 0.000949 µM): < 94.9 nM
IC50 (second compound 0.003 µM): < 94.9 nM
viability, T/C (second compound 30 pM, first compound 0.0949 µM): 91.1%
viability, T/C (second compound 30 pM, first compound 0.3 µM): 85.6%
viability, T/C (second compound 30 pM, first compound 0.949 µM): 81.6%
viability, T/C (second compound 30 pM, first compound 3 µM): 50.9%
viability, T/C (second compound 30 pM, first compound 9.49 µM): 12.3%
viability, T/C (second compound 30 pM, first compound 30 µM): 11.1%
viability, T/C (second compound 94.9 pM, first compound 0.0949 µM): 73%
viability, T/C (second compound 94.9 pM, first compound 0.3 µM): 65.4%
viability, T/C (second compound 94.9 pM, first compound 0.949 µM): 49.7%
viability, T/C (second compound 94.9 pM, first compound 3 µM): 20.2%
viability, T/C (second compound 94.9 pM, first compound 9.49 µM): 9.72%
viability, T/C (second compound 94.9 pM, first compound 30 µM): 8.42%
viability, T/C (second compound 0.0003 µM, first compound 0.0949 µM): 11.3%
viability, T/C (second compound 0.0003 µM, first compound 0.3 µM): 10.6%
viability, T/C (second compound 0.0003 µM, first compound 0.949 µM): 8.99%
viability, T/C (second compound 0.0003 µM, first compound 3 µM): 8.1%
viability, T/C (second compound 0.0003 µM, first compound 9.49 µM): 7.62%
viability, T/C (second compound 0.0003 µM, first compound 30 µM): 5.94%
viability, T/C (second compound 0.000949 µM, first compound 0.0949 µM): 2.49%
viability, T/C (second compound 0.000949 µM, first compound 0.3 µM): 1.82%
viability, T/C (second compound 0.000949 µM, first compound 0.949 µM): 2.22%
viability, T/C (second compound 0.000949 µM, first compound 3 µM): 1.13%
viability, T/C (second compound 0.000949 µM, first compound 9.49 µM): 0.5%
viability, T/C (second compound 0.000949 µM, first compound 30 µM): 0.21%
viability, T/C (second compound 0.003 µM, first compound 0.0949 µM): 0.29%
viability, T/C (second compound 0.003 µM, first compound 0.3 µM): 0.34%
viability, T/C (second compound 0.003 µM, first compound 0.949 µM): 0.26%
viability, T/C (second compound 0.003 µM, first compound 3 µM): 0.22%
viability, T/C (second compound 0.003 µM, first compound 9.49 µM): 0.24%
viability, T/C (second compound 0.003 µM, first compound 30 µM): 0.36%
